We go through 2 compounds from publication PMC4133117 (Biochemical pharmacology, 2014).

For series [1], the target named is T1, ABCB1 (Homo sapiens, UniProt P08183).
In series [2] the target is T1, ABCB1. The experiment in a line: vanadate-sensitive ATPase stimulation in crude membranes. In kind it is biochemical.

T1 sequence (P08183 whole entry): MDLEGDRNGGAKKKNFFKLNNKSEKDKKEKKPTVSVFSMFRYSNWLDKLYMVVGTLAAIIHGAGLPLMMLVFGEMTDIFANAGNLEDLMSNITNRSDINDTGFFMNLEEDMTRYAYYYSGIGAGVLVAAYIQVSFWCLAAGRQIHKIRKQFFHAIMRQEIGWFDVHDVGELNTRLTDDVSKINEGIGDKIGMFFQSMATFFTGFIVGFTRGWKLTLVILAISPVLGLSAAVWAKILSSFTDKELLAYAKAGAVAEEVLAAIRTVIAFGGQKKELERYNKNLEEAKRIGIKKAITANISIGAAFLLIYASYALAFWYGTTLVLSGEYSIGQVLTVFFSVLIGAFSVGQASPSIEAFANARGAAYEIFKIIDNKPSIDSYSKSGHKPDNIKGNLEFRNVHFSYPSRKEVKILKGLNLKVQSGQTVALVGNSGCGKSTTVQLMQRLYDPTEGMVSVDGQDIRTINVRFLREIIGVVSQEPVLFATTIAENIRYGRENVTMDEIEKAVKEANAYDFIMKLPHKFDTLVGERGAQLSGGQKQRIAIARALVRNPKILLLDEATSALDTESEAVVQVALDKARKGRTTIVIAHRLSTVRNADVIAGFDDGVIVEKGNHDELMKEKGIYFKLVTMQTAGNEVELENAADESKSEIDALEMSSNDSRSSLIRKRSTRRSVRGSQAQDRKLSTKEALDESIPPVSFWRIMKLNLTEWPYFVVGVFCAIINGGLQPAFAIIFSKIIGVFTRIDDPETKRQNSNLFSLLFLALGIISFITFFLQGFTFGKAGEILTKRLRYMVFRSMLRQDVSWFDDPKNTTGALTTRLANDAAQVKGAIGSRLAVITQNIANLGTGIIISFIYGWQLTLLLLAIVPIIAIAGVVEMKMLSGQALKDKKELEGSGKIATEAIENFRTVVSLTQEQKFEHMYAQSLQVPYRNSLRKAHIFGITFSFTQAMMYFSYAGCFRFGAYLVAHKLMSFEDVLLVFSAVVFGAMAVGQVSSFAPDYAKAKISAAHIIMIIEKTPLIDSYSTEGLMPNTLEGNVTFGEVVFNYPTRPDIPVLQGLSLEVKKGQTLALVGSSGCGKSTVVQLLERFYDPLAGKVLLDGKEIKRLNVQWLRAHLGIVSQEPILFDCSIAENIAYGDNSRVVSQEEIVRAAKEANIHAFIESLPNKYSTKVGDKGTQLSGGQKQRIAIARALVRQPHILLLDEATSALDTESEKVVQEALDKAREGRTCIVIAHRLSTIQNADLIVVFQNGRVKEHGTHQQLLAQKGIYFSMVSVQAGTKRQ

Turning to `CC(=O)O[C@H]1C(=O)[C@@]2(C)[C@H]([C@H](OC(=O)c3ccccc3)[C@]3(O)C[C@H](OC(=O)[C@H](O)[C@@H](NC(=O)c4ccccc4)c4ccccc4)C(C)=C1C3(C)C)[C@]1(OC(C)=O)CO[C@@H]1C[C@@H]2O` [paclitaxel], the “radiolabelled efflux assay in KB-C2 vs KB-3-1 cells” value at ABCB1 [1] was “significantly lower compared to that of parental KB-3-1 cells due to active transport of the [^3H]-paclitaxel by the ABCB1 transporter”.
In the case of `CC1(C)CNc2cc(NC(=O)c3cccnc3NCc3ccncc3)ccc21` [motesanib], on ABCB1 [2], the EC50 (as a rule, the concentration that produces a half-maximal response) came to 893 nM.
